In ChEMBL document CHEMBL3137667, “[Drug-induced liver injury; fourteenth updated edition of the bibliographic database of liver injuries and related drugs]” (Gastroenterol Clin Biol, 2004):

Experiments:
[1] = Highest frequency of moderate liver toxicity observed during clinical trials, expressed as a percentage. [column '% BIOL' in source]; settings: human
[2] = Highest frequency of acute liver toxicity observed during clinical trials, expressed as a percentage. [column '% AIGUE' in source]; settings: human
[3] = Times to onset, minimal and maximal, observed in the indexed observations. [column 'DELAI' in source]; settings: human
[4] = human, serum
[5] = human, serum; remark: listed apart in the source
[6] = human
[7] = human; remark: listed apart in the source
[8] = human; remark: listed apart in the source
[9] = human, serum, 4383 h
[10] = human; remark: listed apart in the source
[11] = human; remark: listed apart in the source
[12] = human; remark: listed apart in the source
[13] = human; remark: listed apart in the source
[14] = human; remark: listed apart in the source
[15] = human; remark: listed apart in the source
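For Hepatotoxicity (association with vascular disease) in this document: count of indexed literature references reporting vascular liver injury in humans, e.g. peliosis hepatitis, hepatic veno-occlusive disease or Budd-Chiari syndrome.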
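For Hepatotoxicity (benign tumour) in this document: value is a count of indexed literature references citing a benign tumour confirmed by histopathology.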
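For Hepatotoxicity (choleostasis) in this document: human cholestatic liver injury, shown by histopathology or by peak ALT or AST elevation over alkaline phosphatase ratio below 2, value counts indexed literature reports.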
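For Hepatotoxicity (chronic liver disease) in this document: chronic liver injury confirmed by histopathology or persistently raised serum aminotransferase activity beyond 6 months, value given as the count of indexed literature references.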
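For Hepatotoxicity (cirrhosis) in this document: value is a count of indexed literature references reporting cirrhosis confirmed by histopathology.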
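For Hepatotoxicity (cytolytic) in this document: human cytolytic liver injury, shown by histopathology or by a ratio above 5 of peak ALT or AST elevation to alkaline phosphatase elevation, value counts indexed references.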
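For Hepatotoxicity (granulomatous hepatitis) in this document: value is a count of indexed literature references reporting granulomatous liver disease confirmed by histopathology.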
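For Hepatotoxicity (malignant tumour) in this document: malignant tumour confirmed by histopathology, value gives the count of indexed literature references reporting it.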
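For Hepatotoxicity (severe hepatitis) in this document: human clinical data: severe hepatitis, meaning potentially life-threatening liver failure or clinically observed cases, the value counts how many indexed literature references report it.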
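For Hepatotoxicity (steatosis) in this document: steatosis confirmed by histopathology, value is the count of indexed references.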

| Structure (SMILES) | Hepatotoxicity (moderate) [1] | Hepatotoxicity (acute) [2] | Hepatotoxicity (time to onset) [3] | Hepatotoxicity (moderate) [4] | Hepatotoxicity (acute) [5] | Hepatotoxicity (cytolytic) [6] | Hepatotoxicity (choleostasis) [7] | Hepatotoxicity (severe hepatitis) [8] | Hepatotoxicity (chronic liver disease) [9] | Hepatotoxicity (cirrhosis) [10] | Hepatotoxicity (granulomatous hepatitis) [11] | Hepatotoxicity (association with vascular disease) [12] | Hepatotoxicity (steatosis) [13] | Hepatotoxicity (malignant tumour) [14] | Hepatotoxicity (benign tumour) [15] | other results |
| --- | --- | --- | --- | --- | --- | --- | --- | --- | --- | --- | --- | --- | --- | --- | --- | --- |
| CCN(CC)CCCC(C)Nc1ccnc2cc(Cl)ccc12 (stereo not given) [CHLOROQUINE] | 0% | 0% | 1 day - 4 months | 7 | 8 | 4 | 1 | 0 | 0 | 0 | 1 | 0 | 0 | 0 | 0 |  |
| Cc1nnc(NS(=O)(=O)c2ccc(N)cc2)s1 [SULFAMETHIZOLE] | 0% | 0% | 1 month - 2 months | 0 | 4 | 2 | 1 | 0 | 0 | 0 | 0 | 0 | 0 | 0 | 0 |  |
| Nc1ccn([C@H]2CC[C@@H](CO)O2)c(=O)n1 [ZALCITABINE] |  |  | 3 weeks - 10 months | 5 | 4 |  |  |  | 0 | 0 |  | 0 | 2 | 0 | 0 | Hepatotoxicity (moderate) ([1]; Liver): 14.9%; Hepatotoxicity (acute) ([2]; Liver): 8.5%; Hepatotoxicity (cytolytic) ([6]; Liver): 3; Hepatotoxicity (choleostasis) ([7]; Liver): 0; Hepatotoxicity (severe hepatitis) ([8]; Liver): 0; Hepatotoxicity (granulomatous hepatitis) ([11]; Liver): 0 |
| Nc1ccc(C(=O)[O-])cc1.[K+] [AMINOBENZOATE POTASSIUM] | 38% | 0% | 2 months | 1 | 1 | 1 | 0 | 0 | 0 | 0 | 0 | 0 | 0 | 0 | 0 |  |
| COc1cc2nc(N(C)CCCNC(=O)C3CCCO3)nc(N)c2cc1OC (stereo not given) [ALFUZOSIN] | 0% | 0% | 9 months | 0 | 1 | 1 | 0 | 0 | 0 | 0 | 0 | 0 | 0 | 0 | 0 |  |
| O=C(Oc1ccccc1C(=O)O)c1ccccc1O [SALSALATE] | 15% | 5% | 1 day - 2 weeks | 1 | 2 | 2 | 0 | 0 | 0 | 0 | 0 | 0 | 0 | 0 | 0 |  |
